For test [1], the target named is T1, Recombinant (1-346) HPK1 (h) (Homo sapiens, UniProt Q92918).
T1 construct: Recombinant (1-346) HPK1 (h) is incubated with 8 mM MOPS pH 7.0
T1 sequence (Q92918 1-346): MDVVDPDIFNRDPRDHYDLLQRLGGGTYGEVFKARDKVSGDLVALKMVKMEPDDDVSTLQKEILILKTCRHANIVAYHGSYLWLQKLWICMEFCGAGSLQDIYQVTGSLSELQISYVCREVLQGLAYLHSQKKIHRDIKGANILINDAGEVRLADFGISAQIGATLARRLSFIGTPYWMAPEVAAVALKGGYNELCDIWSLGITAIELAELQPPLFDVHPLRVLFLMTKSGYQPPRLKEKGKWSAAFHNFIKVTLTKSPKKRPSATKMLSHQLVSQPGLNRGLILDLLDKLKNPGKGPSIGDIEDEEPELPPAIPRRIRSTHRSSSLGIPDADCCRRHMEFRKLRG
Briefly: HPK1 Human STE Kinase Enzymatic Radiometric Assay. It counts as biochemical. Conditions: read-out: HPK1 IC50 nM Range*. The procedure: A stock solution of 10 mM of test compound is prepared in DMSO. The compound plate was prepared by 3-fold and 9-point serial dilutions. […] The reaction is initiated by The addition of the Mg/ATP mix. After incubation for 40 minutes at RT, the reaction is stopped by the addition of phosphoric acid to a concentration of 0.5%.

Another test has as its target Lck (h) (Homo sapiens, UniProt P06239). In words: Lck Human  Kinase Enzymatic Radiometric Assay. It counts as biochemical. The settings on record: read-out: Lck IC50 nM Range*. In outline:
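Substrate 33P-incorporation measured by scintillation counting after spotting on P30 filtermat and phosphoric acid washes. Human Lck reacted 40 min at RT in 50 mM Tris pH 7.5 with 10 mM MgAcetate, [gamma-33P]-ATP, 250 uM Cdc2 peptide, 0.1 mM EGTA and 0.1 mM Na3VO4.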

Broadly, the IC50 is the midpoint of a concentration-inhibition curve.

The structures appear in SMILES notation.

Sequence of Lck (h) (P06239 whole entry): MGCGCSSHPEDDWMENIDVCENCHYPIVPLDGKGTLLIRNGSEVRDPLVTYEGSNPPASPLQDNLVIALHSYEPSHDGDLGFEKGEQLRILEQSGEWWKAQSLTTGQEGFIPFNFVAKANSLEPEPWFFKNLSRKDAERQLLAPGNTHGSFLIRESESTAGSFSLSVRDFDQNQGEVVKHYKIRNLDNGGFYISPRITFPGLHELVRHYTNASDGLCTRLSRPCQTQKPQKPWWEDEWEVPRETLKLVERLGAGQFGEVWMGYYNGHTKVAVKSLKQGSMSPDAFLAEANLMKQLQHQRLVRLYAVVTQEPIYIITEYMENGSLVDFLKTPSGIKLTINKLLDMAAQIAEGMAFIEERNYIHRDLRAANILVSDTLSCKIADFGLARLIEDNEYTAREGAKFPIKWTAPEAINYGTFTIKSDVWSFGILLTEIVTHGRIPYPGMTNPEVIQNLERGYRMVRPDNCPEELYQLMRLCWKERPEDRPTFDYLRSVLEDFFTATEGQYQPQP

In the case of `Nc1nc(F)c(-c2ccc(N3CCN(CC(F)(F)F)CC3)c(C(F)(F)F)c2)cc1-c1ccc2c(c1)CCNC2=O` [I-202, 6-(2-amino-6-fluoro-5-(4-(4-(2,2,2-trifluoroethyl)piperazin-1-yl)-3-(trifluoromethyl)phenyl)pyridin-3-yl)-3,4-dihydroisoquinolin-1(2H)-one], the IC50 is 11 to 100 nM in test [1] and greater than 1000 nM on Lck (h).
Consider `COCCN1CCC2(CC1)CC(=O)c1cc(-c3cc(-c4ccc5c(c4)CCNC5=O)c(N)nc3F)ccc1O2` [I-215, 6-(6-amino-2-fluoro-5-(1-oxo-1,2,3,4-tetrahydroisoquinolin-6-yl)pyridin-3-yl)-1′-(2-methoxyethyl)spiro[chromane-2,4′-piperidin]-4-one], for which the IC50 is 0.1 to 10 nM in test [1] and greater than 1000 nM at Lck (h).
Regarding `Nc1nc(F)c(-c2ccc(N3CCC4(CC3)CN(C3CCC3)C4)cc2)cc1-c1cc2c(cc1F)C(=O)NCC2` [I-449, 6-(2-amino-5-(4-(2-cyclobutyl-2,7-diazaspiro[3.5]nonan-7-yl)phenyl)-6-fluoropyridin-3-yl)-7-fluoro-3,4-dihydroisoquinolin-1(2H)-one], the IC50 in test [1] is 0.1 to 10 nM; on Lck (h), greater than 1000 nM.
In the case of `Nc1nc(F)c(-c2ccc([C@@]34C[C@@H]3CN(C3CCOCC3)C4)cc2)cc1-c1ccc2c(c1)CCNC2=O` [I-66, 6-(2-amino-6-fluoro-5-(4-((1R,5S)-3-(tetrahydro-2H-pyran-4-yl)-3-azabicyclo[3.1.0]hexan-1-yl)phenyl)pyridin-3-yl)-3,4-dihydroisoquinolin-1(2H)-one], the IC50 in test [1] is 0.1 to 10 nM; on Lck (h), greater than 1000 nM.
With `Nc1nc(F)c(-c2ccc(N3CCN(CCC(F)(F)F)CC3)cc2)cc1-c1cc2c(cc1F)C(=O)NCC2` [I-243, 6-(2-amino-6-fluoro-5-(4-(4-(3,3,3-trifluoropropyl)piperazin-1-yl)phenyl)pyridin-3-yl)-7-fluoro-3,4-dihydroisoquinolin-1(2H)-one], the IC50 in test [1] is 0.1 to 10 nM; at Lck (h), greater than 1000 nM.
For the molecule `CN(C)CC1Cc2cc(-c3cc(-c4ccc(Cl)cc4)c(F)nc3N)ccc2C(=O)N1` (stereo not drawn) [I-312, 6-(2-amino-5-(4-chlorophenyl)-6-fluoropyridin-3-yl)-3-((dimethylamino)methyl)-3,4-dihydroisoquinolin-1(2H)-one], the IC50 is 101 to 1000 nM in test [1] and greater than 1000 nM at Lck (h).
Regarding `Nc1nc(F)c(-c2ccc(C3CCCN(CC(F)(F)F)C3)cc2)cc1-c1ccc2c(c1)CCNC2=O` (stereo not drawn) [I-89, 6-(2-amino-6-fluoro-5-(4-(1-(2,2,2-trifluoroethyl)piperidin-3-yl)phenyl)pyridin-3-yl)-3,4-dihydroisoquinolin-1(2H)-one], the values for the IC50 (in test [1]; on Lck (h)) were 11 to 100 nM and greater than 1000 nM, respectively.
The corresponding values for `COCCN1CCC(F)(c2ccc(-c3cc(-c4ccc5c(c4)CCNC5=O)c(N)nc3F)cc2)CC1` [I-251, 6-(2-amino-6-fluoro-5-(4-(4-fluoro-1-(2-methoxyethyl)piperidin-4-yl)phenyl)pyridin-3-yl)-3,4-dihydroisoquinolin-1(2H)-one] are 0.1 to 10 nM and greater than 1000 nM.
For the molecule `COCCN1CCC(O)(c2ccc(-c3cc(-c4ccc5c(c4)CCNC5=O)c(N)nc3F)cc2)CC1` [I-167, 6-(2-amino-6-fluoro-5-(4-(4-hydroxy-1-(2-methoxyethyl)piperidin-4-yl)phenyl)pyridin-3-yl)-3,4-dihydroisoquinolin-1(2H)-one], the IC50 in test [1] was 0.1 to 10 nM; on Lck (h) it was greater than 1000 nM.
In the case of `CC(C)N1CCN(c2ccc(-c3cc(-c4ccc5c(c4)CC(CN(C)C)NC5=O)c(N)nc3F)cc2)CC1` (stereo not drawn) [I-310, 6-(2-amino-6-fluoro-5-(4-(4-isopropylpiperazin-1-yl)phenyl)pyridin-3-yl)-3-((dimethylamino)methyl)-3,4-dihydroisoquinolin-1(2H)-one], the IC50 in test [1] was 11 to 100 nM; on Lck (h) it was greater than 1000 nM.
For `CC(C)N1CC=C(c2ccc(-c3cc(-c4ccc5c(c4)CCNC5=O)c(N)nc3F)cc2)CC1` [I-81, 6-(2-amino-6-fluoro-5-(4-(1-isopropyl-1,2,3,6-tetrahydropyridin-4-yl)phenyl)pyridin-3-yl)-3,4-dihydroisoquinolin-1(2H)-one] the same measures were 0.1 to 10 nM and greater than 1000 nM.
Consider `Nc1nc(F)c(-c2ccc(N3CCN(CCF)CC3)cc2)cc1-c1ccc2c(c1)CCNC2=O` [I-20, 6-(2-amino-6-fluoro-5-(4-(4-(2-fluoroethyl)piperazin-1-yl)phenyl)pyridin-3-yl)-3,4-dihydroisoquinolin-1(2H)-one], for which the IC50 is 0.1 to 10 nM in test [1] and greater than 1000 nM on Lck (h).
For `CC(=O)N1CCN(c2ccc(-c3cc(-c4ccc5c(c4)CCNC5=O)c(N)nc3F)cc2C(F)(F)F)CC1` [I-200, 6-(5-(4-(4-acetylpiperazin-1-yl)-3-(trifluoromethyl)phenyl)-2-amino-6-fluoropyridin-3-yl)-3,4-dihydroisoquinolin-1(2H)-one] the same measures were 0.1 to 10 nM and greater than 1000 nM.
The corresponding values for `Nc1nc(F)c(-c2ccc(OC3CCN(C4COC4)CC3)cc2)cc1-c1ccc2c(c1)CCNC2=O` [I-338, 6-(2-amino-6-fluoro-5-(4-((1-(oxetan-3-yl)piperidin-4-yl)oxy)phenyl)pyridin-3-yl)-3,4-dihydroisoquinolin-1(2H)-one] are 11 to 100 nM and greater than 1000 nM.
Take `CN1CCN(c2ccc(-c3cc(-c4ccc5c(c4)CCNC5=O)c(N)nc3F)cc2F)CC1` [I-40, 6-(2-amino-6-fluoro-5-(3-fluoro-4-(4-methylpiperazin-1-yl)phenyl)pyridin-3-yl)-3,4-dihydroisoquinolin-1(2H)-one]: the figures for the concentration for half-maximal inhibition (IC50) (in test [1]; on Lck (h)) were 0.1 to 10 nM and greater than 1000 nM, respectively.
`CC(=O)N1CCC(Oc2ccc(-c3cc(-c4ccc5c(c4)CCNC5=O)c(N)nc3F)cc2C(F)(F)F)CC1` [I-199, 6-(5-(4-((1-acetylpiperidin-4-yl)oxy)-3-(trifluoromethyl)phenyl)-2-amino-6-fluoropyridin-3-yl)-3,4-dihydroisoquinolin-1(2H)-one]: the IC50 in test [1] is 11 to 100 nM; on Lck (h), greater than 1000 nM.
For `Cc1nc2cc(-c3cc(-c4ccc(N5CCN(CC6CC6)CC5)cc4)c(F)nc3N)cc(F)c2c(=O)[nH]1` [I-416, 7-(2-amino-5-(4-(4-(cyclopropylmethyl)piper-azin-1-yl)phenyl)-6-fluoropyridin-3-yl)-5-fluoro-2-methylquinazolin-4(3H)-one] the same measures were 0.1 to 10 nM and greater than 1000 nM.
Turning to `CN1CCN(c2ccc(-c3cc(-c4ccc5c(c4)CCNC5=O)c(N)nc3F)cc2)C=N1` [I-31, 6-(2-amino-6-fluoro-5-(4-(1-methyl-5,6-dihydro-1,2,4-triazin-4(1H)-yl)phenyl)pyridin-3-yl)-3,4-dihydroisoquinolin-1(2H)-one], the values for the IC50 (in test [1]; on Lck (h)) were 0.1 to 10 nM and greater than 1000 nM, respectively.
Turning to `CC(C)[C@@H]1CN(c2ccc(-c3cc(-c4ccc5c(c4)CCNC5=O)c(N)nc3F)cc2)CCO1` [I-9, (R)-6-(2-amino-6-fluoro-5-(4-(2-isopropylmorpholino)phenyl)pyridin-3-yl)-3,4-dihydroisoquinolin-1(2H)-one], the half-inhibitory concentration (IC50) was 0.1 to 10 nM in test [1] and greater than 1000 nM on Lck (h).
For the molecule `CNCc1nc2cc(-c3cc(-c4ccc(N5CCN(C(C)C)CC5)cc4)c(F)nc3N)ccc2c(=O)[nH]1` [I-410, 7-(2-amino-6-fluoro-5-(4-(4-isopropylpiperazin-1-yl)phenyl)pyridin-3-yl)-2-((methylamino)methyl)quin-azolin-4(3H)-one], the IC50 in test [1] is 11 to 100 nM; at Lck (h), greater than 1000 nM.
With `CO[C@@H](C)CN1CCN(c2ccc(-c3cc(-c4ccc5c(c4)CCNC5=O)c(N)nc3F)cc2)CC1` [I-24, (S)-6-(2-amino-6-fluoro-5-(4-(4-(2-methoxypropyl)piperazin-1-yl)phenyl)pyridin-3-yl)-3,4-dihydroisoquinolin-1(2H)-one], the IC50 in test [1] is 0.1 to 10 nM; on Lck (h) it was greater than 1000 nM.
For `Nc1nc(F)c(-c2ccc(N3CCN(CC4CC4)CC3)cc2)cc1-c1cc2nc[nH]c(=O)c2cc1F` [I-408, 7-(2-amino-5-(4-(4-(cyclopropylmethyl)piper-azin-1-yl)phenyl)-6-fluoropyridin-3-yl)-6-fluoroquinazolin-4(3H)-one] the same measures were 0.1 to 10 nM and greater than 1000 nM.
The corresponding values for `CC(=O)N1CCC2(CC1)CC(=O)c1cc(-c3cc(-c4ccc5c(c4)CCNC5=O)c(N)nc3F)ccc1O2` [I-192, 1′-acetyl-6-(6-amino-2-fluoro-5-(1-oxo-1,2,3,4-tetrahydroisoquinolin-6-yl)pyridin-3-yl)spiro[chromane-2,4′-piperidin]-4-one] are 0.1 to 10 nM and greater than 1000 nM.
For `COCCN1CCN(c2ccc(-c3cc(-c4cc5c(cc4F)C(=O)NCC5)c(N)nc3F)cc2C(F)(F)F)CC1` [I-264, 6-(2-amino-6-fluoro-5-(4-(4-(2-methoxyethyl)piperazin-1-yl)-3-(trifluoromethyl)phenyl)pyridin-3-yl)-7-fluoro-3,4-dihydroisoquinolin-1(2H)-one] the same measures were 0.1 to 10 nM and greater than 1000 nM.

The values are drawn from US20240343704A1, “HALO-SUBSTITUTED AMINO PYRIDINE COMPOUNDS AS INHIBITORS OF THE HAEMATOPOIETIC PROGENITOR KINASE 1 (HPK1)” (priority 2021, published 2024).
